# Several values for one entry are separate records, joined by “and”; a condition that tells them apart may be missing. Identical values can stand only once. Activity calls are given as the source filed them.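 Rule for the calls: active = compounds giving half or more protection of infected cells from virus-caused growth loss, again on retest; inactive = the rest.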 Where a SMILES comes first, the peptide text is derived from it. The star is where a group is joined. Cbz = O=C(OCc1ccccc1)*
# Test system: CEM cells HIV-1 protection, formazan growth assay
# Test: NCI AIDS Antiviral Assay
# Conditions: for IC50: measured here: growth of uninfected CEM cells
# Method in brief: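 CEM (human) cells, HIV-1 infected vs uninfected, 5-point dosing, formazan growth read-out. Retest threshold 50% protection.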
SMILES,EC50,IC50,outcome
CCOC(=O)/C(C[C@H]1OC(C)(C)O[C@@H]1[C@H]1COC(C)(C)O1)=N/O,> 200 µM,> 200 µM,
O=C(COc1ccc2c(=O)cc(-c3ccccc3)oc2c1)N1CCN(c2ccccc2)CC1,> 16.2 µM,> 16.2 µM,
CN(Cc1ccccc1)C1(N(C)Cc2ccccc2)CC1,,,inactive
Cc1cc(C)c(C(=O)/C=C/c2ccccc2)c(C)c1,> 28.8 µM,> 28.8 µM,
C=C(CN(C)C)C(=O)c1ccc(OC)cc1,,,inactive
CC1=C2C(=O)[C@H]3[C@@H](CC=C4C[C@@H](O)CC[C@@]43C)[C@@H]2CC[C@]12O[C@@H]1C[C@H](C)CN[C@H]1[C@H]2C,> 200 µM,> 2.45 µM and 102 µM,
O=C(CSc1nnc(-c2ccc(N=Cc3ccc(Cl)cc3)cc2)o1)Nc1cccc([N+](=O)[O-])c1,> 5.5 µM,2.24 µM,
CCNC(=O)Nc1ccc(Cl)cn1,> 200 µM,132 µM,
Cn1c(=O)c(C2c3ccccc3Oc3c2c(=O)n(C)c2ccccc32)c(O)c2ccccc21 (stereo unspecified),> 16.6 µM,> 16.6 µM,
C/C(=N\NC(=S)N1CC2CCC(CC2)C1)c1nccs1,> 115 µM,0.363 µM,
CC1(C)OC(COP2OCCO2)[C@H](COP2OCCO2)O1 (stereo partly specified),> 200 µM,> 200 µM,
COc1cc(C(C)(C)C)c(OC(=O)/C=C/C(=O)O/C=C/[N+](=O)[O-])c(C(C)(C)C)c1,> 200 µM,31.6 µM,
Nc1nn2cnnc2s1,,,inactive
CCC1(c2cccc(C)c2)Oc2ccccc2-n2cccc2C1=O (stereo unspecified),0.537 µM,126 µM,
CN(C)c1ccc2c(c1)-c1cc(N(C)C)ccc1C2=CC=C1C(=O)c2ccccc2C1=O,> 17 µM,> 17 µM,
CCCC(CCN)(CCN)[N+](=O)[O-],> 200 µM,> 200 µM,
O=[N+]([O-])c1cccc(-c2nc3ccccc3[nH]2)c1,,,inactive
CC1OC(OC2C(O)COC(OC3C(C)OC(OC4C(OC(=O)[C@]56CCC(C)(C)C[C@@H]5C5=CCC7[C@@]8(C)C[C@H](O)[C@H](OC9OC(CO)C(O)C(OC%10OC(CO)C(O)C(O)C%10O)C9O)[C@@](C)(CO)[C@@H]8CC[C@@]7(C)[C@]5(C)CC6)OCC(O)C4O)C(O)C3O)C2O)C(O)C(O)C1O (stereo partly specified),> 58.9 µM,21.4 µM,
COc1ccc(NC(=O)/C(Cc2nc3ccccc3[nH]c2=O)=N\O)c(OC)c1,,,inactive
O=[N+]([O-])c1ccc(C2Nc3cc(Cl)c(Cl)cc3S(=O)(=O)N2O)cc1 (stereo unspecified),> 93.3 µM,64.6 µM,
O=C1NC(N2CCCC(CO)C2)=N/C1=C\c1cccs1 (stereo unspecified),> 200 µM,> 200 µM,
NN=C(CC(O)(C(F)(F)Cl)C(F)(F)Cl)CC(O)(C(F)(F)Cl)C(F)(F)Cl,> 200 µM,6.92 µM,

SMILES,EC50,IC50,outcome
CCCCCCCCCCCC(=O)OCCNC(=O)C[n+]1ccccc1,> 200 µM,> 200 µM,
COc1cccc(Oc2c(O)c3ccc(OC)cc3oc2=O)c1,> 200 µM,141 µM,
COc1cc(-c2[nH]ncc2CCCC(=O)Nc2ccccc2[N+](=O)[O-])ccc1O,,,inactive
Cc1cccc(N=NC(=O)NNc2cccc(C)c2C)c1C,> 200 µM,70.8 µM,
O=C1c2ccccc2C(=O)c2c1ccc1c2[nH]c2ccccc21,,,inactive
CC(C)/C=N\n1c(N)c(C#N)c(C#N)c1C(C)C,> 200 µM,63.1 µM,
Cc1ccc(-n2c(N)c(C#N)c3[nH]nc(N)c3c2=O)cc1,> 200 µM,> 200 µM,
O=S1(=O)CCCS(=O)(=O)C(c2ccccc2)=C1c1ccccc1,> 145 µM,50.1 µM,
O=c1/c(=C/c2ccccc2F)sc2nc3ccccc3n12,> 1.82 µM,> 1.82 µM,
C/C(=C1/N=C(c2cc([N+](=O)[O-])ccc2Cl)N(C2=CC=C(Cl)CC2)C1=O)c1cc2ccccc2oc1=O,> 19.1 µM,> 19.1 µM,
O=C1Nc2cc(F)ccc2C1=O,> 1510 µM,251 µM,
CCC[CH2][Sn]([CH2]CCC)([O]C(=O)c1cc(OC)c(OC)cc1OC)[O]C(=O)c1cc(OC)c(OC)cc1OC,> 39.8 µM,0.776 µM,
CN(C)c1ccc(/C=C2\C(=O)Nc3ccccc32)cc1,> 10.2 µM,> 10.2 µM,
c1cc(C[N+]23CN4CN(CN(C4)C2)C3)cs1,,,inactive
Cc1ccc(NC(=O)CCC(=O)C(C#N)c2ccc(Cl)cc2)cc1C (stereo unspecified),> 708 µM,> 708 µM,
Nc1[nH]c(=O)[nH]c(=O)c1N=O,> 200 µM,> 200 µM,
O=[N+]([O-])c1ccc(C2ON=C(c3ccccc3)N2C23CC4CC(CC(C4)C2)C3)cc1 (stereo unspecified),> 200 µM,186 µM,
CCOC(=O)/C=C1\SC12C(C)(C)CCCC2(C)C,> 200 µM,61.7 µM,
CC1=NC(C(=O)O)Cc2c1[nH]c1ccccc21 (stereo unspecified),,,inactive
Brc1ccc(-c2cnc3nc4[nH]c5ccccc5c4nn23)cc1,> 200 µM,123 µM,
CC1=NNC(=O)C1N=Nc1c(C)n(C)n(-c2ccccc2)c1=O (stereo unspecified),> 200 µM,16.6 µM,
O=S1(=O)c2ccccc2NC(=S)CC1c1ccccc1 (stereo unspecified),> 200 µM,129 µM,

SMILES,EC50,IC50,outcome
CC(=O)C(=Cc1cccc(Cl)c1)C(C)=O,> 162 µM,26.3 µM,
Cc1ccc2c(c1)C(C1Cc3cccc(C)c3C1=O)OC2=O (stereo unspecified),> 200 µM,> 200 µM,
Cc1ccc2nc(CN(CCO)CCO)cc(=O)n2c1,> 200 µM,> 200 µM,
O=C(O)CCC(NC(=O)c1ccc(Nc2nc3ccc(C(F)(F)F)cc3nc2C(=O)O)cc1)C(=O)O (stereo unspecified),> 200 µM,> 200 µM,
CC1(C)C(O)c2ccccc2OC1N1CCN(C2Oc3ccccc3C(O)C2(C)C)CC1 (stereo unspecified),> 200 µM,> 200 µM,
COc1ccc(N=CN(C)C)c(C)c1,> 200 µM,3.98 µM,
Nc1ccc(C2=NC(C(=O)O)C=C2)cc1 (stereo unspecified),> 200 µM,> 200 µM,
CCCCCCCCCCCCCCCCCC(=O)OCC1OC(OC)C(NC(=O)N(CCCl)N=O)C(O)C1O (stereo unspecified),> 8.71 µM,> 8.71 µM,
CC(C)(C)c1cc(C(=O)/C=C/c2ccc(C(=O)O)cc2)cc(C(C)(C)C)c1,> 15.1 µM,8.32 µM,
Cc1ccc2c(c1)[nH]c(=S)n2/C=C(\c1ccccc1)S(=O)Cc1ccccc1 (stereo unspecified),> 200 µM,> 200 µM,
[N-]=[N+]=NC1=CC(=O)c2cccc3cccc1c23,> 75.9 µM,6.92 µM,
C/C(=C\CNc1nc(Cl)nc2nc[nH]c12)CO,> 200 µM,148 µM,
COC[C@@H](N=Cc1ccc(OC)cc1)C(C)C,> 200 µM,> 200 µM,
N#CC(NNC(=O)Cc1ccccc1)c1ccc(O)cc1 (stereo unspecified),> 891 µM,245 µM,
Cc1cccc(C(C)C)c1NC(=O)C(=O)CC(=O)c1c(C)n([O-])c2ccccc2[n+]1=O,> 85.1 µM,17 µM,
C=C(CS(=O)(=O)c1ccccc1)[P+](c1ccccc1)(c1ccccc1)c1ccccc1,,,inactive
Cn1c(N)c(/C=C/C(=O)Oc2ccccc2)c(=O)n(C)c1=O,,,inactive
CN(c1nc(=[N+](C)C)ss1)C1CCCCC1,,,inactive
CC(=O)NNC(=O)c1ccccc1O,> 200 µM,29.5 µM,
CN(C)C(=O)OC(Cn1cncn1)(Cn1cncn1)c1ccc(Cl)cc1Cl,> 200 µM,> 200 µM,
CC(C)(C)N/N=C(\C(=O)NC1=C(Cl)C(=O)c2ccccc2C1=O)C1C=CCS1(=O)=O (stereo unspecified),> 209 µM,12.9 µM,
NC(=O)CNC(=O)C1CC(O)CN1C(=O)OCc1ccccc1 (stereo unspecified) (HELM PEPTIDE1{[O=C(OCc1ccccc1)[*:2]].[O=C(C1CC(O)CN1[*:1])[*:2]].G.[am]}$$$$V2.0),> 200 µM,> 200 µM,

SMILES,EC50,IC50,outcome
COc1ccc2c3c1OC1C(OC)(OC)CC4(C=C2)CN(C)CCC314 (stereo unspecified),,,inactive
C=C(C)C1CC=C(C)[C@](O)(C2(O)C[C@H](C(=C)C)CC=C2C)C1 (stereo partly specified),,,inactive
O=P(c1ccccc1)(c1ccccc1)P(=O)(c1ccccc1)c1ccccc1,> 200 µM,> 200 µM,
Cc1ccc(NC(=O)C(=O)C2C(=O)C3=C(CC2(C)C)NC2C=CC=CC2S3)c(C)c1 (stereo unspecified),> 117 µM,> 117 µM,
COc1cc(C2C3=C(COC3=O)OC(C)(C)Oc3cc4c(cc32)OCO4)cc(OC)c1OC (stereo unspecified),> 2 µM,0.355 µM,
CCOC(=O)CCC(NC(=O)C(Cc1ccccc1)NC(=O)OCc1ccccc1)C(=O)OCC (stereo not drawn) (Cbz-Phe-Glu(OEt)-OEt; configuration not given here),> 200 µM,9.55 µM,
c1ccc2c(c1)CCN(C1=NCCO1)C2,> 200 µM,178 µM,
O=C1CCC(N2C(=O)C3C4CCC(O4)C3C2=O)C(=O)N1 (stereo unspecified),> 200 µM,> 200 µM,
O=C(Nc1nc(C23CC4CC(CC(C4)C2)C3)cs1)c1cc2c(ccc3ccccc32)oc1=O,> 200 µM,> 200 µM,
Cc1c(C(=O)O)[nH]c(=O)[nH]c1=O,> 200 µM,> 200 µM,
O=[N+]([O-])/C(C(Cl)=C(Cl)Cl)=C1\Nc2ccccc2O1,> 200 µM,97.7 µM,
CCOC(=O)/C(=C\c1cccc(OC)c1)[Se]c1ccccc1,> 14.5 µM,7.59 µM,
Oc1cc(-c2ccc(Cl)cc2)cn2c1nc1ccccc12,> 200 µM,9.77 µM,
COc1ccc2nc3ccc(OC)cc3c(SCc3ccc([N+](=O)[O-])cc3)c2c1,> 200 µM,> 200 µM,
CCC[CH2][Sn]([CH2]CCC)([S]CCS(=O)(=O)O)[S]CCS(=O)(=O)O (tested in a mixture with another compound),> 200 µM,> 200 µM,
C[Si](C)(C)OC=C1CCCCC1,> 200 µM,> 200 µM,
Cc1ccc([B-]23OCC[N+]2(CNC(=O)C2=C(O)C4(O)C(=O)C5=C(O)c6c(O)cccc6C(C)(O)C5CC4C(N(C)C)C2=O)CCO3)cc1 (stereo unspecified),> 53.7 µM,> 53.7 µM,
C#CC1(O)CC[C@H]2[C@@H]3CCC4=CCCC[C@@H]4[C@H]3CC[C@@]21C (stereo partly specified),> 200 µM,30.9 µM,
CC1(C)O[C@]2(C=C[C@@H]1O)CCCCO2,> 251 µM,> 251 µM,
